Row | melting point [°C] | SMILES
1 | 150 to 152 | Cn1cc(-c2ccccc2)c(=O)c(-c2cc(C(F)(F)F)ccc2Cl)c1
2 | 99 to 100 | COC(=O)N[C@@H]1CCc2ccc(Br)cc2C1
3 | 203 to 205 | O=S1(=O)NCN(C2CC2)c2cc(Br)cc(Br)c21
4 | 82 to 84 | CCCCNC(=O)C(C)n1cc(C)c(-c2ccccc2)n1 (stereo not drawn)
5 | 78 to 79 | COC(=O)c1cc2cc(C)ccc2s1
6 | 30 to 32 | CCOC(=O)c1sc(CC)nc1C(F)(F)F
7 | 92 to 94 | O=C(CBr)c1ccc2c(c1)CCCS2
8 | 70 | O=C(O)c1cc(NCc2c(F)c(F)c(C(F)(F)F)c(F)c2F)ccc1Br
9 | 223 | Cc1ccc(N2C(=O)C(O)=C(C(=O)c3ccc(C(C)C)cc3)C2c2ccc(Cn3cncn3)cc2)nn1 (stereo not drawn)
10 | 131 to 132 | C1=C(CCCc2ccccc2)CCN(Cc2nc3ccccc3[nH]2)C1
11 | > 250 | Cn1nc(-c2cnc(N)nc2-c2ccccc2Br)ccc1=O
12 | 237 to 239 | CC1CCc2cc(C(O)C(C)N3CCC(n4c(=O)[nH]c5ccccc54)CC3)ccc2S1 (stereo not drawn)
13 | 93 | CCCCNC(=S)Nc1onc2c1CCC2
14 | 128 | COc1ccc2c(c1)C(=O)c1ccc(Nc3ccc(F)c(F)c3F)cc1CC2
15 | 251 | Cc1oc(-c2ccc(S(C)(=O)=O)cc2)c(Oc2ccc(Cl)cc2)c(=O)c1Br
16 | 248 to 249 | COC(=O)[C@H](CC(=O)O)NC(=O)c1cccc(NC(=O)c2ccc(C(=N)N)cc2)c1
17 | 74 to 75 | CCOC(=O)c1cn(-c2ccc(C(F)(F)F)cc2)nc1C(C)C
18 | 258 | CC(C)n1cc(-c2ncc(N)nc2-c2ccc(F)cc2)ccc1=O
19 | 104 to 105 | CC(C)(C)c1cccc(C[C@@H](NC(=O)c2cccc3c2C=CCCC3)[C@@H](O)c2cccc(Cl)c2)c1 (racemic)
20 | 176 to 178 | Cc1nc(NC(=N)N)sc1C=O
21 | 91 to 93 | CC(=O)NCCN1CCc2ccc3c(c21)CCCO3
22 | 165 to 167 | O=C(C1CC1)N1CCCCc2cc(C(O)(C(F)(F)F)C(F)(F)F)ccc21
23 | 180 to 183 | CC(C)C[C@H](NC(=O)[C@H](Cc1ccccc1)NC(=O)C1CCCCC1S)C(=O)O (stereo partly drawn)
24 | 255 to 257 | O=[N+]([O-])c1ccc(N2Cc3ccccc3P2(=O)c2ccccc2)cc1 (stereo not drawn)
25 | 79 to 80 | COc1nc2ccccc2cc1NC(=O)N1CCN(c2ccccc2Cl)CC1

Row | melting point [°C] | SMILES
26 | 159 to 160 | CC1(C)CC(=C(c2ccc(O)cc2)c2ccc(CCO)cc2)CC(C)(C)C1
27 | 131 to 133 | NS(=O)(=O)c1ccccc1C1=NOCCO1
28 | 291 to 292 | COc1ccc2cc(C(=O)O)sc(=O)c2c1
29 | 149 to 150 | Cc1c(-c2ccc(OCc3ccccc3)cc2)[nH]c2ccc(OCc3ccccc3)cc12
30 | 219 | CC(C)(C)OC(=O)N1CCC(OCc2ccccc2)C1CC(O)Cn1cnc2cccc(F)c2c1=O (stereo not drawn)
31 | 192 to 194 | CNC1=Nc2ccccc2C(O)(c2ccccc2)C1(C)C (stereo not drawn)
32 | 192 to 195 | C=CCc1c(O)ccc2c(C)cc(=O)oc12
33 | 51 to 54 | CN(C)CCCCCOc1ccc(-c2nnc(CSCCOc3ccccc3)o2)cc1
34 | 158 to 159 | NS(=O)(=O)c1ccc(-n2nc(C=NOCc3ccccc3)cc2-c2ccc(Cl)cc2)cc1
35 | 209 to 210 | CC1(C)Cc2c(c(N3CCOCC3)nc3sc4c(NCC(=O)N5CCOCC5)ncnc4c23)CO1
36 | 171 to 172 | NS(=O)(=O)c1ccc(-n2nc(CCCNC(=O)Nc3ccccc3)cc2-c2ccccc2)cc1
37 | 184 to 185 | COc1cc2c(cc1OC)CN(CCCc1ccc(NC(=O)c3cnc4ccccc4c3)cc1)CC2
38 | 120 to 121 | O=CC(=Cc1ccccc1OCc1ccccc1)C(C=O)=Cc1ccccc1OCc1ccccc1
39 | 188 to 190 | Cc1ccc(Nc2nc(CO)cs2)c(O)c1
40 | 132 to 133 | CCc1cc(OCc2ccccc2)ccc1C(=O)O
41 | 131 to 134 | O=C(O)c1cccc(OC(F)(F)C(F)(F)F)c1
42 | 172 to 175 | COC(=O)C(c1ccc(O)cc1)N1CC(NC(=O)Cc2ccccc2)C1=O (stereo not drawn)
43 | 132 to 134 | COC1CCN2C(=O)c3cccc([N+](=O)[O-])c3C2C1 (stereo not drawn)
44 | 138 to 139 | Cc1cccc(Oc2nc(-c3c[nH]nc3C)cs2)n1
45 | 128 | CCOP(=O)(OCC)c1ccc2cccc(-c3cccc4ccccc34)c2n1
46 | 205 to 206 | C=CCOc1ccccc1-c1nc2nc(SC)ncc2c(=O)[nH]1
47 | 200 to 201 | CN1C(=O)Cn2c(C(=O)N3CCOCC3)nnc2-c2cc(Cl)ccc21
48 | 162 | Cc1oc(-c2ccccc2)nc1Cc1cc2cc(N)ccc2o1
49 | 242 to 244 | O=Cc1cc2c(s1)CCc1cc(=O)n(-c3ccc(Cl)cc3)nc1-2
50 | 205 to 206 | CC(N)C(=O)N(CCC(=O)O)C1Cc2ccccc2C1 (stereo not drawn)

Row | melting point [°C] | SMILES
51 | 73 to 74 | CC(C)Oc1ccc(C=O)c(Oc2ccc(Cl)cc2Cl)n1
52 | 103 to 110 | Cc1noc(NS(=O)(=O)c2ccccc2-c2ccc(-c3ncco3)cc2CC#N)c1C
53 | 186 to 188 | c1ccc2c(c1)CNc1c-2ccc2ccccc12
54 | 83 to 85 | O=C(OCC1CCCO1)C1Oc2ccccc2Cc2ccccc2O1 (stereo not drawn)
55 | 156 to 157 | O=C1c2cc(S(=O)(=O)N3CCCCC3)ccc2SC12CC2
56 | 79 to 81 | COc1ccc2c(c1)C(CCCCNC(C)=O)=CCC2
57 | 48 to 50 | O=C(O)CSCCCCOc1ccccc1
58 | 78 to 80 | COc1ccc(C(=O)OC2C(OC(C)=O)C=C(C)C(=O)CC2(C)C)cc1 (stereo not drawn)
59 | 135 | COc1ccc2c(=O)c(-c3ccc(C)cc3)coc2c1OC
60 | 95.6 to 97 | CC(C)(C)[Si](OC1CCC(O)C1COC(c1ccccc1)(c1ccccc1)c1ccccc1)(c1ccccc1)c1ccccc1 (stereo not drawn)
61 | 264 to 266 | CCOC(=O)c1c[nH]c2cc(C(=O)NC3CCN(Cc4ccccc4)CC3)nn2c1=O
62 | > 230 | CNc1cc(C)nc2c(S(=O)(=O)c3ccc(C)cc3)c(SC)nn12
63 | 200 | CC(Oc1ccc2nc(NC(=O)NCCN3CCOCC3)sc2c1)c1c(F)ccc(Cl)c1Cl (stereo not drawn)
64 | > 300 | CCn1c(=O)c(=O)[nH]c2ccc([N+](=O)[O-])cc21
65 | 158 to 160 | Cc1nc2c(O[C@@H]3c4ccccc4C[C@H]3OS(C)(=O)=O)cccn2c1C=O (relative stereo)
66 | 116 to 119 | CC(C)(OC(=O)c1ccccc1)c1nccc2ccccc12
67 | 81 to 83 | CC1(CCC(=O)CCCc2cccc([N+](=O)[O-])c2)C(=O)CCC1=O
68 | 150 to 151 | Cc1ccc(S(=O)(=O)OCCC2C3=C(CC=CC3)CCc3ccccc32)cc1 (stereo not drawn)
69 | 91 to 94 | COC(=O)Cc1nc(N)cc(OC)n1
70 | 138 to 140 | Cn1c2ccccc2c2c(C(=O)C(F)(F)F)csc21
71 | 193 to 196 | NC(CO)(CCCc1ccc(Sc2cccc(OCc3ccccc3)c2)cc1Cl)CCP(=O)(O)O (stereo not drawn)
72 | 72 to 74 | CCCCCCCCCCCCCCCCSCC(O)CO (stereo not drawn)
73 | 138 to 139 | Cn1nnnc1NCC(O)CCOc1cccc(CN2CCCCC2)c1 (stereo not drawn)
74 | 129 to 131 | O=C(c1cccc(OC(F)(F)F)c1)N1CCc2cc(S(=O)(=O)N3CC(c4ccccc4)NC3=O)ccc21 (stereo not drawn)
75 | 169 to 171 | CC1=C(c2ccncc2Cl)SCC(=O)N1

Row | melting point [°C] | SMILES
76 | 174 to 177 | CC1=NS(=O)(=O)N(C(c2ccccc2)c2ccccc2)C=C1
77 | 151 to 154 | O=[N+]([O-])c1oc2ccc(CN3CCOCC3)cc2c1-c1ccccc1
78 | > 300 | CC(C)Cn1cnc2c(O)nc3ccccc3c21
79 | 42 to 44 | O=C(CC1CCCCCC1=O)c1ccccc1 (stereo not drawn)
80 | 145 to 147 | O=C(O)CCCCc1ccc(NS(=O)(=O)c2ccc(Cl)cc2)cn1
81 | 180 to 182 | COc1cc(C(=O)O)cc2c1CC(C)O2 (stereo not drawn)
82 | 123 | CN(C(=O)c1ccc(Cl)cc1)c1ccccc1CCCC(=O)O
83 | 152 to 155 | CN1C(=O)CC[C@]2(C)c3ccc(Sc4ccc5cc(F)ccc5n4)cc3CC[C@@H]12
84 | 191 | Nc1ccc(C2Nc3ccccc3C(=O)N2c2ccccc2)cc1 (stereo not drawn)
85 | 287 to 290 | Cn1c(=O)c(-c2ccc(Cl)cc2Cl)cc2c3cc(C=NO)ccc3n(C)c21
86 | 187 to 189 | COc1cc2c(c3c1OC(C)(C)C3)C(c1ccccc1-c1ccncc1)=NC(C)(C)C2
87 | 158 to 159 | CCOC(=O)CCCn1c(Nc2cnc(N(C)C)cc2C)nc2c(Cl)ccc(C(CC)CC)c21
88 | 38 to 40 | Cc1ccc(S(=O)(=O)OCCCCO[N+](=O)[O-])cc1
89 | 148 to 149 | Cc1c(SCCCSCc2ccncc2)ccnc1CNc1ncncc1Cl
90 | 129 to 131 | COC(=O)c1snc(-c2ccc(OC)cc2)c1N
91 | 110 to 111 | OC(CSc1nccs1)(Cn1cncn1)c1ccc(Cl)cc1Cl (stereo not drawn)
92 | 197 to 199 | COc1cc2c(cc1Nc1ncc(Cl)c(Nc3ccccc3S(=O)(=O)N3CCC(O)C3)n1)CCN(CC(C)O)CC2 (stereo not drawn)
93 | 69 to 71 | C#CCOc1ccc(COC(C)=O)cc1OC
94 | 134 to 136 | CN(O)C(=O)c1ccc(OCCOc2ccccc2)cc1
95 | 134 to 135 | Cc1nc2nc(SCc3ccccc3)nn2c(C)c1C
96 | 196 to 197 | CCOC(=O)C1=C(O)C(C)(CC)CNC1=O (stereo not drawn)
97 | 278 to 280 | Nc1cc(-c2ccccn2)cc2nc(-c3ccccc3)nn12
98 | 62 | CC(=O)C1CCC(=O)N1C(C)=O (stereo not drawn)
99 | 176 to 178 | Cc1csc2nc(=O)n(C)c(-c3ccccc3F)c12
100 | 217 to 219 | Oc1cccc(Nc2nnc(Cc3ccncc3)c3ccccc23)c1

Row | SMILES | melting point [°C]
101 | COc1ccc(C2CNCc3cc(C)ccc32)cc1OC (stereo not drawn) | 129 to 131
102 | N#CC1CN1C(=O)c1ccc(Cl)nn1 (stereo not drawn) | 109 to 115
103 | OCCNCCc1c[nH]c2ccccc12 | 92

From a melting point compilation (Tetko et al.; mined from patent text by program, amines drawn as free bases though some values may be those of a salt)
